Where a SMILES comes first, the peptide text is derived from it. Bridges are numbered along the chain shown (N, C = ends). [ ]: non-standard residue; d: D form. The star is where a group is joined. Phe(4-COOH) = N[C@@H](Cc1ccc(C(=O)O)cc1)C(=O)O; Asp(3,3-Me2) = CC(C)(C(=O)O)[C@H](N)C(=O)O; Bip = N[C@@H](Cc1ccc(-c2ccccc2)cc1)C(=O)O; Phe(3-Me) = Cc1cccc(C[C@H](N)C(=O)O)c1; Val(3-OH) = CC(C)(O)[C@H](N)C(=O)O; 4Pal = N[C@@H](Cc1ccncc1)C(=O)O; Cha = N[C@@H](CC1CCCCC1)C(=O)O; hSer = N[C@@H](CCO)C(=O)O; Carboxymethyl = O=C(O)C*; Orn = NCCC[C@H](N)C(=O)O; Dab = NCC[C@H](N)C(=O)O; Nva = CCC[C@H](N)C(=O)O; NHCH2CH2OMe = COCCN*
molecular target: T1, human PD-1 / PD-L1-Ig binding on Jurkat cell line over-expressing human PD-1 (Jurkat-PD-1) (Homo sapiens, UniProt Q15116); assay: Jurkat-PD-1 Cell Binding High-Content Screening Assay (CBA); format: cell-based; settings: Jurkat-PD-1 cells, PE-labeled PD-L1-Ig 20 nM final; read-out: Jurkat HPD1_PDL1 IC50
T1 construct: expressed in transfected cells; host or cells: Jurkat
Procedure, shortened: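 Jurkat-hPD-1 cells in DMEM with 10% fetal calf serum receive test compound and are held at 37° C for 2 h. PE-labeled PD-L1-Ig is added at 20 nM final and left for 1 hour. Cells are then fixed and Hoechst-stained, and binding is measured by imaging.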

T1 sequence (Q15116 25-288): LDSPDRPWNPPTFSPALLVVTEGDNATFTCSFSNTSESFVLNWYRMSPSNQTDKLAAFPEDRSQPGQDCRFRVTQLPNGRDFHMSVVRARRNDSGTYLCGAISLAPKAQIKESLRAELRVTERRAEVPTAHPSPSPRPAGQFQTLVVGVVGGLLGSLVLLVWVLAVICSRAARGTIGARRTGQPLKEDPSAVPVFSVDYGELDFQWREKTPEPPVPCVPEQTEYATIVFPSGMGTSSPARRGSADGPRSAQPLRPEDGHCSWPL

| Compound | IC50 [µM] |
| --- | --- |
| COCCNC(=O)[C@H](CCN)NC(=O)[C@@H]1CSCC(=O)N[C@@H](CCOC)C(=O)N[C@@H](Cc2ccc(OCC(=O)O)cc2)C(=O)N[C@@H](CC(=O)O)C(=O)N[C@@H](Cc2cccc(C)c2)C(=O)N[C@@H](Cc2ccc(OCC(=O)O)cc2)C(=O)N[C@@H](Cc2ccc(-c3ccccc3)cc2)C(=O)N[C@@H](Cc2ccc(OCC(=O)O)cc2)C(=O)N[C@@H](CCCN)C(=O)N[C@H](CC(C)C)C(=O)N[C@@H](CCN)C(=O)N[C@@H](CC2CCCCC2)C(=O)N[C@@H](C(C)(C)O)C(=O)N[C@@H](CO)C(=O)N1 [Compound 2075] ({CH2CO}-[hSer](Me)Y(Carboxymethyl)D[Phe(3-Me)]Y(Carboxymethyl)[Bip]Y(Carboxymethyl)[Orn][dL][Dab][Cha][Val(3-OH)]SC[Dab]-NHCH2CH2OMe; thioether N-14) | 0.0041 |
| COCCNC(=O)[C@H](CCN)NC(=O)[C@@H]1CSCC(=O)N[C@@H](Cc2ccncc2)C(=O)N[C@@H](Cc2ccc(C(=O)O)cc2)C(=O)N[C@@H](CC(=O)O)C(=O)N[C@@H](Cc2cccc(C)c2)C(=O)N[C@@H](Cc2ccc(OCC(=O)O)cc2)C(=O)N[C@@H](Cc2ccc(-c3ccccc3)cc2)C(=O)N[C@@H](Cc2ccc(OCC(=O)O)cc2)C(=O)N[C@@H](CCCN)C(=O)N[C@H](CC(C)C)C(=O)N[C@@H](CCN)C(=O)N[C@@H](CC2CCCCC2)C(=O)N[C@@H](C(C)(C)O)C(=O)N[C@@H](CO)C(=O)N1 [Compound 2076] ({CH2CO}-[4Pal][Phe(4-COOH)]D[Phe(3-Me)]Y(Carboxymethyl)[Bip]Y(Carboxymethyl)[Orn][dL][Dab][Cha][Val(3-OH)]SC[Dab]-NHCH2CH2OMe; thioether N-14) | 0.24 |

Other lines, results leading:

| IC50 [µM] | Compound |
| --- | --- |
| 0.0195 | Cc1cccc(C[C@@H]2NC(=O)[C@H](CC(=O)O)NC(=O)[C@H](Cc3ccc(C(=O)O)cc3)NC(=O)[C@H](Cc3ccncc3)NC(=O)CSC[C@@H](C(=O)N[C@@H](CCN)C(N)=O)NC(=O)[C@H](CO)NC(=O)[C@H](C(C)(C)O)NC(=O)[C@H](CC3CCCCC3)NC(=O)[C@H](CCN)NC(=O)[C@@H](CC(C)C)NC(=O)[C@H](C(C)(C)C(=O)O)NC(=O)[C@H](Cc3ccc(OCC(=O)O)cc3)NC(=O)[C@H](Cc3ccc(-c4ccccc4)cc3)NC(=O)[C@H](Cc3ccc(OCC(=O)O)cc3)NC2=O)c1 [Compound 2072] ({CH2CO}-[4Pal][Phe(4-COOH)]D[Phe(3-Me)]Y(Carboxymethyl)[Bip]Y(Carboxymethyl)[Asp(3,3-Me2)][dL][Dab][Cha][Val(3-OH)]SC[Dab]-NH2; thioether N-14) |
| 0.0222 | Cc1cccc(C[C@@H]2NC(=O)[C@H](CC(=O)O)NC(=O)[C@H](Cc3ccc(OCC(=O)O)cc3)NC(=O)[C@H](CCN)NC(=O)CSC[C@@H](C(=O)N[C@@H](CCN)C(N)=O)NC(=O)[C@H](CO)NC(=O)[C@H](C(C)(C)O)NC(=O)[C@H](CC3CCCCC3)NC(=O)[C@H](CCN)NC(=O)[C@@H](CC(C)C)NC(=O)[C@H](C(C)(C)C(=O)O)NC(=O)[C@H](Cc3ccc(OCC(=O)O)cc3)NC(=O)[C@H](Cc3ccc(-c4ccccc4)cc3)NC(=O)[C@H](Cc3ccc(OCC(=O)O)cc3)NC2=O)c1 [Compound 2073] ({CH2CO}-[Dab]Y(Carboxymethyl)D[Phe(3-Me)]Y(Carboxymethyl)[Bip]Y(Carboxymethyl)[Asp(3,3-Me2)][dL][Dab][Cha][Val(3-OH)]SC[Dab]-NH2; thioether N-14) |
| 0.0044 | CCC[C@@H]1NC(=O)CSC[C@@H](C(=O)N[C@@H](CCN)C(=O)NCCOC)NC(=O)[C@H](CO)NC(=O)[C@H](C(C)(C)O)NC(=O)[C@H](CC2CCCCC2)NC(=O)[C@H](CCN)NC(=O)[C@@H](CC(C)C)NC(=O)[C@H](CCCN)NC(=O)[C@H](Cc2ccc(OCC(=O)O)cc2)NC(=O)[C@H](Cc2ccc(-c3ccccc3)cc2)NC(=O)[C@H](Cc2ccc(OCC(=O)O)cc2)NC(=O)[C@H](Cc2cccc(C)c2)NC(=O)[C@H](CC(=O)O)NC(=O)[C@H](Cc2ccc(OCC(=O)O)cc2)NC1=O [Compound 2074] ({CH2CO}-[Nva]Y(Carboxymethyl)D[Phe(3-Me)]Y(Carboxymethyl)[Bip]Y(Carboxymethyl)[Orn][dL][Dab][Cha][Val(3-OH)]SC[Dab]-NHCH2CH2OMe; thioether N-14) |
